According to US20160264636A1, “PEPTIDE INHIBITORS OF TEAD/YAP-TAZ INTERACTION” (UNIVERSITE PIERRE ET MARIE CURIE (PARIS 6), priority 2013, published 2016):
Like-named read-outs stand apart in the source and are kept apart here. Peptide text beside a SMILES is read from it.

Columns and labels:
A549 cells = assay type: cell-based; settings: for Letal Dose (μM) LD25: Table II, 72 h, MTT, 25% cell death
Procedure: (§1) H1650, H1975, H1299, A549 cell lines were cultured in DMEM medium supplemented with 10% of FCS. HBEC cell lines (wt and Ras V12) were cultured in KSFM supplemented with growth factors. All the cell lines come from human non small cell lung cancer (NSCLC).
(§2) The cytotoxicity of penetrating peptides or chemotherapeutic agents, alone or in combination, was evaluated by the (3-(4,5-dimethylthiazol-2-yl)-2,5-diphenyltetrazolium bromide) tetrazolium (MTT) reduction assay. The cells were seeded in 96-well plates (100 μL/well) at a cell density defined from growth curves. After 24 hours of incubation, cells were treated with the peptides for 72 hours. The wells were rinsed two times with RPMI. After washing, 10 μl of stock MTT solution (5 mg/ml; MTT (SIGMA #M-2128) in PBS Dubecco's 1× without Ca^2+ and Mg^2+) was added to a final volume of 100 μl of culture medium. Cell lines were incubated for additional 4 hours at 37° C. under humid atmosphere with 5% (v/v) CO2. The formation of blue formazan crystals was detected under a microscope. An equal volume of 10% SDS (MERCK, #926.238) in 10 mM HCl was added to each well and the plate was placed in the incubator overnight to dissolve formazan crystals. The plates were mixed to ensure complete solubilisation of formazan crystals and absorbance was measured at 570 nm and 620 nm. The percentage of viable cells was estimated using the formula: % cell viability=ΔOD(570-620) treated/ΔOD(570-620)control×100.
(§3) Cell-penetrating peptides (CPPs) comprising the binding site of TEAD to TAZ or YAP or of YAP to TEAD (TAZ, TEAD and YAP peptides, respectively) were chemically synthesized. The effect of the peptides on cell viability was assayed on several human non small cell lung cancer (NSCLC) cell lines. All the lung cancer cell lines were treated for 72 h with different peptide concentrations. Cytotoxicity was analysed as described in Materials and Methods.

H1299 cells = assay type: cell-based; settings: for Letal Dose (μM) LD25: Table II, 72 h, MTT, 25% cell death
Procedure: as §1, §2, §3

H1650 cells = assay type: cell-based; settings: for Letal Dose (μM) LD25: Table II, 72 h, MTT, 25% cell death
Procedure: as §1, §2, §3

H1975 cells = assay type: cell-based; settings: for Letal Dose (μM) LD25: Table II, 72 h, MTT, 25% cell death
Procedure: as §1, §2, §3

HBEC RasV12 cells = assay type: cell-based; settings: for Letal Dose (μM) LD25: Table II, 72 h, MTT, 25% cell death
Procedure: as §1, §2, §3

HBEC wt cells = assay type: cell-based; settings: for Letal Dose (μM) LD25: Table II, HBEC WT, 72 h, MTT, 25% cell death; for Cell viability (%): HBEC wt
Procedure: as §1, §2, §3

ES2 cells = test: MTT cytotoxicity assay, ES2; assay type: cell-based; settings: for Letal Dose (μM) LD25: Table VIII, 72 h, MTT, 25% cell death; for Cell viability (%): Table IX
Procedure: as §2
(§4) ES2, IGROV-1, OVCAR8 and SKOV3 cell lines come from human ovarian cancer.
as §3, with “ovarian” for “non small cell lung”, “cancer” for “cancer (NSCLC)”, “ovarian” for “lung”, “example 2.” for “Materials and Methods.”

SKOV3 cells = test: MTT cytotoxicity assay, SKOV3; assay type: cell-based; settings: for Letal Dose (μM) LD25: Table VIII, 72 h, MTT, 25% cell death; for Cell viability (%): Table IX
Procedure: as §2, §4
as §3, with “ovarian” for “non small cell lung”, “cancer” for “cancer (NSCLC)”, “ovarian” for “lung”, “example 2.” for “Materials and Methods.”

IGROV-1 cells = test: MTT cytotoxicity assay, IGROV; assay type: cell-based; settings: for Letal Dose (μM) LD25: Table VIII, 72 h, MTT, 25% cell death; for Cell viability (%): Table IX
Procedure: as §2, §4
as §3, with “ovarian” for “non small cell lung”, “cancer” for “cancer (NSCLC)”, “ovarian” for “lung”, “example 2.” for “Materials and Methods.”

OVCAR8 cells = test: MTT cytotoxicity assay, OVCAR8; assay type: cell-based; settings: for Letal Dose (μM) LD25: Table VIII, 72 h, MTT, 25% cell death; for Cell viability (%): Table IX
Procedure: as §2, §4
as §3, with “ovarian” for “non small cell lung”, “cancer” for “cancer (NSCLC)”, “ovarian” for “lung”, “example 2.” for “Materials and Methods.”

[1] = test system: MP41 uveal melanoma cells; test: MTT cytotoxicity assay, MP41; assay type: cell-based, human; settings: MP41; 100 μM; 72 h
Procedure: as §2
MP41, MP46 and MP66 cell lines come from uveal melanoma patient derived xenografts. They were cultured in RPMI medium supplemented with 20% of FCS.
All the uveal melanoma cell lines were treated for 72 h with different concentrations of the peptides TAZ, “LV”, YAP and TEAD (SEQ ID NO: 35, 36, 37). Cytotoxicity was analysed as described in example 2. […] The best effect was shown in MP41 with about 40% cytotoxicity at 100 μM.

[2] = test system: colon, lung and ovarian cancer cell lines; test: MTT cytotoxicity, comparison of TAZ LV and VL peptides; assay type: cell-based, human; settings: all lines tested except ES2: HCT116, HT29, SW480, OVCAR8, A549, HT1975; 72 h; 0.1 to 100 μM (FIGS. 5 to 8)
Procedure: as §2

[3] = Table III, drug alone vs its vehicle (HPCD10%, NaCl or Glucose 5%)
[4] = Table IV, drug alone vs its vehicle (Glucose 5% or NaCl)
[5] = Table V, drug alone vs its vehicle (Glucose 5% or NaCl)
[6] = Table VI, peptide alone vs HPCD 10%

Row | Compound | Letal Dose (μM) LD25 (A549 cells) [µM] | Cell viability (%) (A549 cells; [3]) | Cell viability (%) (A549 cells; [5]) | Letal Dose (μM) LD25 (H1299 cells) [µM] | Cell viability (%) (H1299 cells; [3]) | Cell viability (%) (H1299 cells; [5]) | Letal Dose (μM) LD25 (H1650 cells) [µM] | Cell viability (%) (H1650 cells; [3]) | Cell viability (%) (H1650 cells; [5]) | Letal Dose (μM) LD25 (H1975 cells) [µM] | Cell viability (%) (H1975 cells; [3]) | Cell viability (%) (H1975 cells; [5]) | Letal Dose (μM) LD25 (HBEC RasV12 cells) [µM] | Cell viability (%) (HBEC RasV12 cells; [3]) | Cell viability (%) (HBEC RasV12 cells; [5]) | Letal Dose (μM) LD25 (HBEC wt cells) [µM] | Cell viability (%) (HBEC wt cells; [3]) | Cell viability (%) (HBEC wt cells; [5]) | Cell viability (%) (A549 cells; [6]) | Cell viability (%) (H1299 cells; [6]) | also measured
1 | C#Cc1cccc(Nc2ncnc3cc(OCCOC)c(OCCOC)cc23)c1 [Tarceva, Erlotinib] | 0 | −52.89 | −67.3 | >100 | −39.83 | −61.14 | 0.4 | −47.11 | −53.13 | 3 | −49.68 | −56.6 | 0.001 | −4.596 | 0.2682 | 0.04 | −15.63 | −37.28 |  |  | Cell viability (%) (A549 cells; [4]): −60.75%; Cell viability (%) (H1299 cells; [4]): −60.68%; Cell viability (%) (H1650 cells; [4]): −38.72%; Cell viability (%) (H1975 cells; [4]): −77.63%; Cell viability (%) (HBEC RasV12 cells; [4]): −25.67%; Cell viability (%) (HBEC wt cells; [4]): −55.15%
2 | CC[C@H](C)[C@H](NC(=O)[C@H](CCCCN)NC(=O)[C@H](CCCCN)NC(=O)[C@H](CCCCN)NC(=O)[C@H](CCCCN)NC(=O)[C@@H](N)C(C)C)C(=O)N[C@@H](CCCCN)C(=O)N[C@@H](C)C(=O)N[C@@H](CCC(=O)O)C(=O)N[C@H](C(=O)N[C@@H](CCCCN)C(=O)N[C@H](C(=O)N[C@@H](CCCCN)C(=O)N[C@H](C(=O)N[C@@H](C)C(=O)N[C@@H](CC(N)=O)C(=O)N[C@H](C(=O)N1CCC[C@H]1C(=O)N[C@@H](CCC(N)=O)C(=O)N[C@H](C(=O)N[C@H](C(=O)N1CCC[C@H]1C(=O)N[C@@H](CCSC)C(=O)N[C@@H](CCCNC(=N)N)C(=O)N[C@@H](CC(C)C)C(=O)N[C@@H](CCCNC(=N)N)C(=O)N[C@@H](CCCCN)C(=O)N[C@@H](CC(C)C)C(=O)N1CCC[C@H]1C(=O)N[C@@H](CC(=O)O)C(=O)O)C(C)C)[C@@H](C)O)C(C)C)[C@@H](C)O)[C@@H](C)CC)[C@@H](C)CC [YAP] (H-VKKKKIKAEIKIKTANVPQTVPMRLRKLPD-OH) | >100 |  | −23.19 | >100 |  | −40.21 | >100 |  | −45.14 | >100 |  | −26.22 | >100 |  | −72.88 | >100 |  | −60.73 | −10.25 | −13.8 | Cell viability (%) (H1650 cells; [6]): −4.488%; Cell viability (%) (H1975 cells; [6]): −5.766%; Cell viability (%) (HBEC RasV12 cells; [6]): −44.98%; Cell viability (%) (HBEC wt cells; [6]): −41.35%; Letal Dose (μM) LD25 (ES2 cells): >100 µM; Letal Dose (μM) LD25 (SKOV3 cells): >100 µM; Letal Dose (μM) LD25 (IGROV-1 cells): >100 µM; Letal Dose (μM) LD25 (OVCAR8 cells): >100 µM; cytotoxicity [1]: about 40%
3 | VKKKKIKAEIKI-PPHAFFVLKFWADLNWGPSGEEAGAG (VKKKKIKAEIKIPPHAFFVLKFWADLNWGPSGEEAGAG) [TAZ “VL”] |  |  |  |  |  |  |  |  |  |  |  |  |  |  |  |  |  |  |  |  | effect on cellular viability, TAZ “LV” compared with TAZ “VL” [2]: same effect
4 | VKKKKIKAEIKIPPHAFFVLKFWADLNWGPSGEEAGAG [TAZ] | 6 | −38 |  | 5 | −24.71 |  | >100 | −30.68 |  | 3 | −49.35 |  | 2.5 | −89.9 |  | 2.5 | −58.16 |  | −7.835 | −8.413 | Cell viability (%) (H1650 cells; [6]): −2.439%; Cell viability (%) (H1975 cells; [6]): −13.21%; Cell viability (%) (HBEC RasV12 cells; [6]): −53.02%; Cell viability (%) (HBEC wt cells; [6]): −66.15%; Cell viability (%) (ES2 cells; TAZ 10 μM vs HPCD 10%): −46.33%; Cell viability (%) (ES2 cells; TAZ 25 μM vs HPCD 10%): −57.44%; Letal Dose (μM) LD25 (ES2 cells): 6 µM; Cell viability (%) (SKOV3 cells; TAZ 10 μM vs HPCD 10%): −26.64%; Cell viability (%) (SKOV3 cells; TAZ 25 μM vs HPCD 10%): −36.09%; Letal Dose (μM) LD25 (SKOV3 cells): 60 µM; Cell viability (%) (IGROV-1 cells; TAZ 10 μM vs HPCD 10%): −39.39%; Cell viability (%) (IGROV-1 cells; TAZ 25 μM vs HPCD 10%): −34%; Letal Dose (μM) LD25 (IGROV-1 cells): 5 µM; Cell viability (%) (OVCAR8 cells; TAZ 10 μM vs HPCD 10%): −18.7%; Cell viability (%) (OVCAR8 cells; TAZ 25 μM vs HPCD 10%): −24.69%; Letal Dose (μM) LD25 (OVCAR8 cells): 9 µM
